Measured values published in patent US20260232824A1, “ANTI-CD180 BINDING MOLECULES AND USES THEREOF” (Champions Oncology, Inc., priority 2023, published 2026).

What was measured:
[1] = system: panel of cancer cell lines; details: cited from earlier work
CD19 = target: T1, CD19 (Homo sapiens, UniProt P15391); assay: CD19 expression versus in vitro activity of comparative ADC; type: cell-based; details: FIG. 27A
T1 construct: endogenous in cells
T1 sequence (P15391 20-556): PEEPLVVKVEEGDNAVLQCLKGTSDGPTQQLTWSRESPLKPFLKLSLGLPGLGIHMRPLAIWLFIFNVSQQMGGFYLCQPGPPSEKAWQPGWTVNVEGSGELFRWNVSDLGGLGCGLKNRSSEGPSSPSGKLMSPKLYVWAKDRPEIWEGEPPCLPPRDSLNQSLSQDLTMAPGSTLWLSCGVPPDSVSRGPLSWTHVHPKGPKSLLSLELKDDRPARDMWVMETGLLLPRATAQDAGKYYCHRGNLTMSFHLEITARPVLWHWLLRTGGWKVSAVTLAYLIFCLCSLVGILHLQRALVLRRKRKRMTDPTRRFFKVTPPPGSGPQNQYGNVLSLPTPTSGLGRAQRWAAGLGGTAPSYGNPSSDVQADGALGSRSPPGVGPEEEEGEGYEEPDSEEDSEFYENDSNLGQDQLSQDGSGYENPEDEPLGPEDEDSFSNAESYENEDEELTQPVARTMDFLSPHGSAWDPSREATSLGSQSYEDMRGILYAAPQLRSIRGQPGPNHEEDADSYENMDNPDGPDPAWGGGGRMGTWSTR

| Compound | activity in a panel of cancer cell lines [1] | correlation of CD19 expression with in vitro activity (CD19) |
| --- | --- | --- |
| COc1cc2c(cc1OCCCCCOc1cc3c(cc1OC)C(=O)N1C=C(C)C[C@H]1C=N3)N=C[C@@H]1CC(C)=CN1C2=O [SG3199] | picomolar activity |  |
| Lonca Tesirine: loncastuximab tesirine-lpyl |  | CD19 expression correlated with in vitro activity |
